This data set in a line: solvent given as SMILES.

As to `c1ccc(COc2cc(C[n+]3ccc(-c4cc[n+](Cc5cc(OCc6ccccc6)cc(OCc6ccccc6)c5)cc4)cc3)cc(OCc3ccccc3)c2)cc1`, under “in CC#N”, the absorption maximum is reported as 261 nm.

With `CCOc1cccc2c1O[B-](F)(F)[n+]1c3c(c4c(c1-2)-c1ccccc1CC4)-c1ccccc1CC3`, the absorption maximum (in ClCCl) is given as 343 nm.

As for `O=c1c2ccccc2n2c3ccccc3c(=O)c3cccc1c32`, the absorption maximum (in Cc1ccccc1) turned out to be 432.96 nm.

The compound `CCCCn1c(-c2ccc(-c3nnc(-c4ccc(-c5nc(-c6ccccc6)c(-c6ccccc6)n5CCCC)cc4)o3)cc2)nc(-c2ccccc2)c1-c1ccccc1` came in with an absorption maximum (in ClCCl) of 352 nm.

Turning to `CC(C)[Si](C#Cc1c2nc3ccccc3nc2c(C#C[Si](C(C)C)(C(C)C)C(C)C)c2nc3c4ccccc4c(=O)c4ccccc4c3nc12)(C(C)C)C(C)C`, under “in ClCCl”, the absorption maximum is listed as 603 nm.

In the case of `c1ccc(N(c2ccccc2)c2ccc(-c3ncc(-c4cnc(-c5ccc(N(c6ccccc6)c6ccccc6)cc5)s4)s3)cc2)cc1`, where the note is “in CO”, the absorption maximum stood at 422 nm.

Take `Cc1cc(C)c(C2=C3C=C(/C=C/C(=O)OC(C)(C)C)C=[N+]3[B-](F)(F)n3cc(/C=C/C(=O)OC(C)(C)C)cc32)c(C)c1`: where the note is “in ClCCl”, the absorption maximum is recorded as 580 nm.

`CN(C)CCNc1ccc([N+](=O)[O-])cc1[N+](=O)[O-]`: the absorption maximum runs as follows: (in C1CCCCC1) 334 nm; (in C1CCOC1) 352 nm; (in C1COCCO1) 348 nm; (in CC#N) 352 nm; (in CC(C)=O) 352 nm; (in CCCCCC) 330 nm. In addition, the absorption maximum was determined as 348 nm (in CCO); 347 nm (in CCOC(C)=O); 358 nm (in CN(C)C=O); 350 nm (in CO); 363 nm (in CS(C)=O); 347 nm (in Cc1ccccc1). In addition, the absorption maximum runs as follows: (in ClC(Cl)Cl) 350 nm; (in ClCCl) 352 nm.

Take `CCCCCCCCCCCCCCCC[n+]1ccc(/C=C(\C)c2ccccc2)cc1`: the absorption maximum (in C1COCCO1) worked out at 387.4 nm; the absorption maximum (in CC(C)=O) turned out to be 383.2 nm; the absorption maximum (in CC(C)O) is given as 385.4 nm; the absorption maximum (in CCCCCC) is listed as 398.5 nm; the absorption maximum (in CCCCO) is listed as 390.5 nm; the absorption maximum (in CCCO) amounted to 398.5 nm. The absorption maximum by setting is: (in CCO) 399.5 nm; (in CN(C)C=O) 384.4 nm; (in CO) 400.6 nm; (in CS(C)=O) 384.6 nm; (in Cc1ccccc1) 393.5 nm; (in ClC(Cl)(Cl)Cl) 399.5 nm. In addition, the absorption maximum (in ClC(Cl)Cl) is 384 nm, the absorption maximum (in ClCCl) is on record as 386.4 nm and the absorption maximum (in c1ccccc1) is 386.8 nm.

For the compound `CCC12C(=C3C(=C4c5ccc(-c6ccccc6)cc5S(=O)(=O)C41CC)C(F)(F)C(F)(F)C3(F)F)c1ccc(-c3ccccc3)cc1S2(=O)=O` (configuration not stated), under “in C1COCCO1”, the absorption maximum came out at 456 nm.

Regarding `Cn1ccc(-c2nc3ccccc3nc2/C=C/N2CCCC2)c1`, the absorption maximum (in CC#N) came out at 445 nm.

Take `c1ccc(-c2c3c(c(-c4ccccc4)c4c2-c2ccccc2C4)-c2ccccc2C3)cc1`: the absorption maximum (in C1CCCCC1) is given as 329 nm.

As to `Cc1ccccc1C(=O)NN1C2=C(CC3=C1CC(C)(C)CC3=O)C(=O)CC(C)(C)C2`, the absorption maximum was found to be 370 nm (in C1CCOC1); 370 nm (in CC#N); 368 nm (in CC(C)=O); 378 nm (in CCCCCO); 376 nm (in CO); 370 nm (in ClC(Cl)Cl). Moreover, for the setting “in ClCCl”, the absorption maximum was 368 nm.

Turning to `CC(C)(C)c1ccc(C2=c3sc4ccccc4c3=[N+]3C2=Nc2c(-c4ccc(C(C)(C)C)cc4)c4sc5ccccc5c4n2[B-]3(F)F)cc1`, the absorption maximum reads like this: (in C1CCOC1) 709 nm; (in Cc1ccccc1) 715 nm; (in ClC(Cl)Cl) 711 nm.

On to `CCCn1c(=O)c(/C=C/c2nc3ccc(C)cc3n(CCC)c2=O)nc2ccc(C)cc21`, for which the absorption maximum is given as 434 nm (in C1COCCO1), 431 nm (in CC#N) and 434 nm (in ClCCl).

With `CCCCC(CC)Cn1c2cc(C#N)ccc2c2ccc(C#Cc3ccc4ccc5cccc6ccc3c4c56)cc21` (configuration not stated), the absorption maximum (in ClCCl) amounted to 410 nm.

`c1ccc(N(c2ccccc2)c2cc3c4c(c2)N(c2ccccc2)c2cc5c(cc2B4c2ccccc2N3c2ccccc2)B2c3ccccc3N(c3ccccc3)c3cc(N(c4ccccc4)c4ccccc4)cc(c32)N5c2ccccc2)cc1` displayed an absorption maximum (in Cc1ccccc1) of 457 nm.

The compound `CC(C)(C)NC1=CC2=c3cc(NC(C)(C)C)c4nc(C(F)(F)C(F)(F)C(F)(F)F)nc5c(NC(C)(C)C)cc(c3c54)C3=CC(NC(C)(C)C)=C4N=C(C(F)(F)C(F)(F)C(F)(F)F)N=C1C4C32` (configuration not stated) had an absorption maximum (in C1CCOC1) of 646 nm.

Compound `FC(F)(F)c1ccc(/C2=C3N=C(C(c4ccccc4)=C/3c3ccccc3)/C(c3ccc(C(F)(F)F)cc3)=c3\[nH]/c(c(-c4ccccc4)c3-c3ccccc3)=C(/c3ccc(C(F)(F)F)cc3)C3=N/C(=C(/c4ccc(C(F)(F)F)cc4)c4[nH]c2c(-c2ccccc2)c4-c2ccccc2)C(c2ccccc2)=C3c2ccccc2)cc1` showed an absorption maximum (in ClCCl) of 708 nm.

With `C[Si]1(C)C2=C(c3ccc(N(c4ccccc4)c4ccccc4)cc31)P(=O)(c1ccccc1)c1ccccc12` (configuration not stated), the absorption maximum is, setting by setting: (in CC#N) 440 nm; (in CO) 452 nm; (in Cc1ccccc1) 446 nm.

As for `CC(C)[Si](C#Cc1c2ccccc2c(C#C[Si](C(C)C)(C(C)C)C(C)C)c2nc3c4ccccc4c(=O)c4ccccc4c3nc12)(C(C)C)C(C)C`, the absorption maximum (in ClCCl) is on record as 509 nm.

In turn, `C(S/C=C/c1ccc(-c2ccc(/C=C/SC=C3CCCCC3)cc2)cc1)=C1CCCCC1` showed an absorption maximum (in ClCCl) of 351 nm.

In turn, `CCCCCCOC(=O)/C=C/C1=CC2=C(c3c(C)cc(C)cc3C)c3cc(/C=C/C(=O)OCCCCCC)cn3[B-](F)(F)[N+]2=C1` displayed an absorption maximum (in ClCCl) of 579 nm.

For the compound `COCCOCCOCCNc1cc2c3c(c(NCCOCCOCCOC)cc4c3c1C(=O)N(CCOCCOCCOC)C4=O)C(=O)N(CCOCCOCCOC)C2=O`, the absorption maximum is, setting by setting: (in CO) 605 nm; (in ClC(Cl)Cl) 610 nm; (in O) 623 nm.

As for `c1cc2ccc3ccc4cc3c2cc1CCCCCCc1ccc2ccc3ccc-4cc3c2c1`, the absorption maximum (in Cc1ccccc1) was 336 nm.

Consider `c1cc2ccc3cc4[nH]ccc4c4ccc(c1)c2c34`, for which the absorption maximum (in CCOC(C)=O) stood at 384 nm.

With `CCOC(=O)c1ccccc1-c1c2ccc(=O)cc-2oc2cc(OC(=O)[C@H](CSCc3ccc(C)cc3)NC(=O)OC(C)(C)C)ccc12`, the absorption maximum is given as 431 nm (in C1CCOC1), 431 nm (in CC#N), 435 nm (in CCO) and 457 nm (in CS(C)=O).

In the case of `c1ccc2c(c1)c1ccccc1n2-c1ccc2cc(-c3ccc(-c4ccc(-c5cc6ccc(-n7c8ccccc8c8ccccc87)cc6o5)cc4)cc3)oc2c1`, the absorption maximum is 369 nm (in Cc1ccccc1) and 380 nm (in c1ccc2c(c1)c1ccccc1n2-c1ccc(-c2ccc(-n3c4ccccc4c4ccccc43)cc2)cc1).

For the setting “in ClCCl”, `N#Cc1ccc(-c2cc3c(ccc4sccc43)s2)cc1` showed an absorption maximum of 346 nm.

As to `Cc1cc(=O)oc2ccc3ccc(O)cc3c12`, the absorption maximum is reported as 347 nm (in CC#N) and 350 nm (in CCO).

For `CC(C)(C)c1ccc2c(c1)c1cc(C(C)(C)C)ccc1n2-c1cc[n+]2c(c1)-c1ccccc1O[B-]2(F)F`, under “in Cc1ccccc1”, the absorption maximum is 375 nm.

Compound `C(#Cc1ncc(-c2ccccc2)o1)c1cccnc1` gave an absorption maximum (in ClCCl) of 330 nm.

Regarding `CCCCCc1ccc(C#Cc2cc(C#Cc3ccc(CCCCC)cc3)c3ccc4c(C(=O)c5ccccc5)cc(C#Cc5ccc(CCCCC)cc5)c5ccc2c3c54)cc1`, where the note is “in ClCCl”, the absorption maximum amounted to 457 nm.

`COC(=O)C(NC(=O)OC(C)(C)C)c1ccc2oc(-c3ccc(O)cc3O)nc2c1` (configuration not stated): the absorption maximum runs as follows: (in CC1CCCCC1) 336 nm; (in CC#N) 320 nm; (in CO) 321 nm.

As to `Cc1ccc2c(c1)C1(c3ccccc3-c3ccccc31)c1cc(C)ccc1N2c1ccc2c(c1)Oc1ccccc1P2(=S)c1ccccc1` (configuration not stated), the absorption maximum (in Cc1ccccc1) turned out to be 311.25 nm.

For the compound `N#Cc1cnc(-c2c3ccccc3cc3ccccc23)nc1`, the absorption maximum runs as follows: (in CCO) 382 nm; (in ClCCl) 385 nm.

Turning to `COc1ccc2c(c1)c1c(OC)c3ccccc3c(OC)c1n2C`, the absorption maximum is, setting by setting: (in C1CCCCC1) 421 nm; (in CC#N) 422 nm; (in CO) 421 nm; (in ClCCl) 425 nm.

In turn, `CCCCCCCCCCCCOc1cc(C(=O)Nc2ccc(-c3ccc4c(c3)C(=O)c3cc(-c5ccc(NC(=O)c6cc(OCCCCCCCCCCCC)c(OCCCCCCCCCCCC)c(OCCCCCCCCCCCC)c6)cc5)ccc3-4)cc2)cc(OCCCCCCCCCCCC)c1OCCCCCCCCCCCC` came in with an absorption maximum (in C1CCOC1) of 447 nm.

Compound `COc1ccc(C2=CC(c3ccccc3)=C(c3ccccc3)C2)c2ccccc12` yielded an absorption maximum (in ClCCl) of 354 nm.

Consider `CCC1=C(C)C2=Cc3c4ccccc4c4n3[B-](c3ccc5cc6ccccc6cc5c3)(Oc3ccccc3-4)[N+]2=C1C` (configuration not stated), for which the absorption maximum reads like this: (in CC#N) 621 nm; (in CCCCCC) 626 nm; (in Cc1ccccc1) 630 nm; (in ClCCl) 627 nm.

Under “in ClC(Cl)Cl”, `CCCCCCCCCCOc1cc(OCCCCCCCCCC)cc(C2=C3C(C)=CC(/C=C/c4ccc(OC)cc4)=[N+]3[B-](F)(F)n3c(/C=C/c4ccc(OC)cc4)cc(C=Cc4ccc(OC)cc4)c32)c1` registered an absorption maximum of 665 nm.

Where the note is “in CC#N”, `CN(C)c1ccc(-c2nc3cc(C(F)(F)F)ccc3n2-c2ccccc2)cc1` registered an absorption maximum of 332 nm.

For the origin of these results see the Deep4Chem optical property database.
